Data on 3 compounds can be found in patent US6518302B1, “Remedies” (Takara Shuzo Co., Ltd., priority 1999, dated 2003).

The subject of assay [1] is heme oxygenase 1 protein in RAW264.7 cells. The experiment in a line: Heme oxygenase 1 induction (Western blot). Also on record: key: − represents no band observed; increase in the intensity of the band is represented as follows: +−<+<++; increase in the intensity of the band is represented as follows: +−<+<++; increase in the intensity of the band is represented as follows: +−<+<++. Type of assay: cell-based. Conditions: 12 hours, positive control: 5 μl of 3 mM solution in dimethyl sulfoxide added to 5 ml. As to the method:
RAW264.7 cells (ATCC TIB 71) were suspended in Dulbecco's modified Eagle's medium (Bio Whittaker, 12-604F) containing 10% fetal calf serum (Gibco) at a concentration of 3×10^5 cells/ml. 5 ml of the suspension was added to each well of a 6-well microtiter plate and the plate was incubated at 37° C. overnight in the presence of 5% CO2. 50 μl of a solution containing the compound (11) or the compound (14) at a concentration of 10 mM or 5 mM in water, 5 μl of a solution containing the compound (7) at a concentration of 50 mM or 25 mM in dimethyl sulfoxide, or 5 μl of a solution containing the compound (17) at a concentration of 100 mM or 50 mM in dimethyl sulfoxide was added to the well. The plate was incubated for 12 hours. A positive control for heme oxygenase 1 induction in which 5 μl of 3 mM solution of 15-deoxy-Δ12,14 prostaglandin J2 (Cayman Chemical, 18570) in dimethyl sulfoxide was added, and a negative control in which water was added were provided. The cells were recovered by detaching the cells from the plate using a scraper and suspended in 0.1 M tris-HCl buffer (pH 7.5) containing 0.05 mM pepstatin A (Sigma, P5318), 0.2 mM leupeptin (Sigma, L2884), 1 mM phenylmethylsulfonyl fluoride (Nacalai Tesque, 273-27), 10 mM ethylenediaminetetraacetic acid disodium salt and 0.1% Triton X-100. A supernatant obtained by centrifuging the suspension after freezing and thawing was used as a protein fraction. The content of protein in the protein fraction was determined using Micro BCA Protein Assay Reagent (a product of Pierce sold by Takara Shuzo, P7411). A sample from the protein fraction prepared as described above was mixed with an equal volume of 0.125 M tris-hydrochloride buffer (pH 6.8) containing 4% sodium lauryl sulfate (SDS), 2% 2-mercaptoethanol, 0.001% Bromophenol Blue and 20% glycerol. After treatment at 100° C. for 5 minutes, a portion corresponding to 10 μg of protein was loaded on 12.5% SDS-polyacrylamide gel and electrophoresed at a constant current of 20 mA. After electrophoresis, the gel was transferred to a PVDF membrane (Millipore, IPVH000 10) at a constant voltage of 15 V for 25 minutes using a blotting buffer (containing 48 mM tris, 39 mM glycine, 20% methanol and 0.0375% SDS) and Trans-Blot SD Cell Semi-Dry blotting apparatus (Bio-Rad) according to the attached protocol. After transferring, the PVDF membrane was blocked in a solution of Block Ace (Dainippon Pharmaceutical, UK-B25) at 4 C overnight. After blocking, the membrane washed three times in phosphate buffered saline containing 0.1% Tween 20 for 15 minutes with gentle shaking. The membrane was reacted in phosphate buffered saline containing 10% Block Ace, 0.1% Tween 20 and 200 ng/ml of anti-heme oxygenase 1 antibody (N-19; Santa Cruz, sc-7696) at room temperature for 1 hour with gentle shaking, and then washed three times in phosphate buffered saline containing 0.1% Tween 20 for 15 minutes with gentle shaking. The membrane was reacted in phosphate buffered saline containing 10% Block Ace, 0.1% Tween 20 and 0.1% peroxidase-labeled rabbit anti-goat IgG (H+L) antibody (Zymed, 61-1620) at room temperature for 1 hour with gentle shaking, and then washed five times in phosphate buffered saline containing 0.1% Tween 20 for 15 minutes with gentle shaking. The PVDF membrane was stained using Western Blot Chemiluminescence Reagent Plus (a product of NEN Life Science Products sold by Daiichi Pure Chemicals, NEL103) according to the attached protocol and exposed to an X-ray film (Kodak, CAT165 1454). After exposure, the film was developed using FPM800 (Fuji Film).
The intensity of the band depended on the concentration of the sample. In the table, the intensity of the band for heme oxygenase 1 protein is expressed by the mark +. Specifically, − represents no band observed, and increase in the intensity of the band is represented as follows: +−<+<++.

The test system of assay [2] is Human promyelocytic leukemia HL-60 cells. The experiment in a line: Antiproliferation activity against HL-60 cells (MTT method). Conditions: 48 hour incubation. Type of assay: cell-based. How it is done:
Human promyelocytic leukemia HL-60 cells (ATCC CCL-240) were cultured at 37° C. in RPMI 1640 medium (Gibco) containing 10% of fetal calf serum (JRH Bioscience) which had been treated at 56° C. for 30 minutes, and suspended in the same medium at a concentration of 5000 cells/90 μl. Each 90 μl portion of the suspension was distributed into each well of a 96-well plate (Falcon). To the suspension in each well was added 10 μl of one the following samples, and incubated at 37° C. in the presence of 5% CO2. The samples were 2-, 4-, 8-, 16-, 32-, 64- or 128-dilutions of filter-sterilized 200 mM aqueous solution of the compound (2) obtained in Example 1, 50 mM aqueous solution of the compound (7), 50 mM aqueous solution of the compound (9), 100 mM aqueous solution of the compound (11), 100 mM aqueous solution of the compound (14), 20 mM aqueous solution of the compound (17), 12.5 mM aqueous solution of the compound (19) or 12.5 mM aqueous solution of the compound (21) with sterile water, as well as water. After 48 hour from the initiation of the incubation, the numbers of viable cells calculated based on the absorbance measured according to the MTT method as described in “Apoptosis Jikken Protocol” (Syuzyun-sha, Seiichi Tanuma, ed., pp. 156 (1994)) were compared each other.

Assay [3] concerns HL-60 (ATCC CCL-240) cells. Nature of the assay: Viability of HL-60 cells by Trypan Blue staining. Type of assay: cell-based. Conditions: Homo sapiens, read-out: Viability50, concentration that results in a viability of 50%. How it is done:
HL-60 (ATCC CCL-240) cells were cultured at 37° C. in RPMI 1640 medium (Bio Whittaker) containing 10% fetal calf serum (JRH) which had been treated at 56° C. for 30 minutes and suspended in RPMI 1640 medium at a concentration of 2.5×10^5 cells/4.5 ml.
[…] each of aqueous solutions of the compound (2) at a concentration of 10, 50 or 100 mM, the compound (7) at a concentration of 500, 1000 or 1500 μM, the compound (9) at a concentration of 750, 1500 or 3000 μM, the compound (11) at a concentration of 750, 1500 or 3000 μM, or the compound (14) at a concentration of 750, 1500 or 3000 μM was added to 4.5 ml of the suspension. The mixtures were incubated at 37° C. for 24 hours in the presence of 5% CO2.
A portion of the cells cultured for 24 or 48 hours as described in Example 4 was stained with 0.4% Trypan Blue and examined under an optical microscope. The number of viable cells which were not stained and the number of dead cells which were stained blue were counted. The concentration of each of the compounds (2), (7), (9), (11) and (14) that results in a viability of 50% (Viability50 mM) was determined.

Assay [4] relates to HL-60 cells (ATCC CCL-240). Nature of the assay: Proliferation of HL-60 cells with or without hydroxyurea G1 arrest (WST-1). Type of assay: cell-based, Human. Conditions: 48 hours. As to the method:
HL-60 cells (ATCC CCL-240) were suspended in RPMI 1640 medium (Bio Whittaker, 12-702F) containing 10% fetal calf serum (Gibco) and 100 μM hydroxyurea at a concentration of 5×10^5 cells/ml. 20 ml of the suspension was added to a 10-cm Petri dish. The dish was incubated at 37° C. overnight in the presence of 5% CO2 to make the cells arrest at G1 phase. The cells were collected by centrifugation and resuspended in RPMI 1640 medium containing 10% fetal calf serum (Gibco) and 100 μM hydroxyurea at a concentration of 5×10^5 cells/ml. 5 ml of the suspension was added to each well of a 6-well microtiter plate. On the other hand, as cells without the treatment with hydroxyurea, HL-60 cells were suspended in RPMI 1640 medium containing 10% fetal calf serum (Gibco) at a concentration of 1×10^5 cells/ml. 5 ml of the suspension was added to each well of a 6-well microtiter plate. 50 μl of a solution containing DGE at a concentration of 30, 22.5, 15 or 7.5 mM in water, 25 μl of a solution containing the compound (7) at a concentration of 60, 45, 30 or 15 mM in dimethyl sulfoxide, or 25 μl of a solution containing the compound (17) at a concentration of 100, 75, 50 or 25 mM in dimethyl sulfoxide was added to the well containing the cells treated with hydroxyurea. 50 μl of a solution containing DGE at a concentration of 8, 6, 4 or 2 mM in water, 25 μl of a solution containing the compound (7) at a concentration of 30, 22.5, 15 or 7.5 mM in dimethyl sulfoxide, or 25 μl of a solution containing the compound (17) at a concentration of 80, 60, 40 or 20 mM in dimethyl sulfoxide was added to the well containing the cells without the treatment with hydroxyurea. The plate was incubated for additional 48 hours. Cells collected by centrifuging the culture were suspended in 5 ml of fresh RPMI 1640 medium containing 10% fetal calf serum (Gibco). 100 μl of the suspension was used for measuring viable cell number using Premix WST-1 Cell Proliferation Assay System (Takara Shuzo, MK400).
For each of the samples, the concentration at which 50% of the proliferation is inhibited (IC50) for the cells treated with hydroxyurea was higher than that for the cells without the treatment with hydroxyurea. Table 3 summarizes IC50 (μM) for each of the samples. […] Since most of cells in a living body are arrested at G1 phase, it is considered that DGE and R-AhGal compounds (precursors of DGE) are agents less toxic to a living body.

Like-named read-outs stand apart in the source and are kept apart here.

`CCCCC/C=C/C=C1/C(=O)C=C[C@@H]1C/C=C\CCCC(=O)O` [15-deoxy-Δ12,14 prostaglandin J2, reference compound]: in assay [1], the “Intensity of band for heme oxygenase 1 protein” value was “+”.
As for `CC(=O)OCC1OC(OC2C(O)COC2C(O)C(O)O)C(OC(C)=O)C(OC(C)=O)C1OC(C)=O` [Compound (9), 4-O-(β-D-2,3,4,6-tetra-O-acetylgalactopyranosyl)-3,6-anhydro-D-galactose], in assay [2], the “antiproliferation activity against HL-60 cells” value is reported as “exhibited antiproliferation activities”. Also, the IC50 was 113 µM in assay [2] (Homo sapiens, HL-60 cells, read-out: IC50, concentration at which 50% of the proliferation is inhibited); 17200 µM in assay [3] (24 hours); 189 µM in assay [3] (48 hours).
Take `O=C1C=CC(CO)OC1O` [DGE, L-glycero-1,5-epoxy-1αβ,6-dihydroxy-cis-hex-3-en-2-one, reference compound]: the IC50 in assay [4] (HL-60 cells arrested at G1 phase with 100 μM hydroxyurea, read-out: IC50, Cells treated with hydroxyurea) amounted to 101 µM; in assay [4] (HL-60 cells, read-out: IC50, Cells without treatment with hydroxyurea) it was 49.5 µM.
